Data set [1] has as its system HTB-132 cell line. Put plainly: MTT viability test, HTB-132 cells. The format is cell-based, human. The settings on record: for IC50, cytotoxic effect, HTB-132: 24 h at 37 °C, mean of n = 3. The method, then:
(§1) For all cell lines, the medium used was Dulbecco’s Modified Eagle’s Medium (DMEM)/Nutrient Mixture F-12 Ham. For the HTB-132, MCF-7, and MCF-12A lines, the medium was supplemented with 10% fetal bovine serum (SFB), and 1.5 g/L NaHCO3 and NaOH were added up to pH 7.4, amphotericin (200 μg/mL), and 1% penicillin and streptomycin. For the primary culture cells of bovine mammary epithelium and fibroblasts, in addition to the above, hydrocortisone (250 μg/mL) was added. All media were filtered through a 0.22 μm membrane.
(§2) Briefly, the cells were seeded with a complete medium in 96-well plates at a rate of 10,000 cells and 100 µL per well, and adhesion to the plates was allowed for 24 h. Subsequently, the complete medium was removed and an incomplete medium was added for synchronization for another 24 h. The cells were then incubated at 37 °C for 2, 24, or 48 h with 100 μL of peptide at the concentrations to be evaluated (200, 100, 50, 25, 12.5, 6.25 and 3.1 μg/mL). Next, the peptide was removed from the box, and 100 µL of incomplete medium with 10% 3-4,5-dimethylthiazol-2-yl-2,5-diphenyltetrazole (MTT) bromide was added and incubated for 4 h. The medium was replaced with 100 μL of isopropanol (IPA), and after 30 min of incubation at 37 °C, the absorbance was measured at 575 nm. As a negative control, an incomplete culture medium with 10% MTT was used, and as a positive control, cells without MTT treatment were used.

A further data set relates to MCF-7 cell line. The experiment in a line: MTT viability test, MCF-7 cells. The format is cell-based, human. As for the experimental part: as §1, §2
The next data set deals with MCF-12 cell line. The format is cell-based, human. As for the experimental part: as §1, §2
The test system of data set [2] is MCF-7 cells. The experiment in a line: Integrity of the cytoplasmic membrane, SYTO9/PI flow cytometry. The settings on record: MCF-7, peptide 15 µM, PI and SYTO9. Type of data set: cell-based, human.
Protocol: The cells with complete medium were seeded and synchronized in boxes of 24 wells in a concentration of 4 × 10^4 cells/well in a volume of 400 μL/well, and adhesion to the plate was allowed for 24 h [52]. Then the complete medium was replaced by incomplete medium for synchronization of the cells for an additional 24 h. […] The cells were harvested by adding 200 μL of trypsin and incubating for 10 min. The trypsin was quenched with 200 µL of complete medium, and the cells were centrifuged at 2500 rpm for 10 min. The supernatant was discarded, and the pellet was washed with 100 µL PBS and centrifuged under the same conditions previously described. The supernatant was discarded, and the cells were stained with 30 μL of a solution from the LIVE/DEAD® FungaLigthTM commercial kit (Invitrogen) containing the mixture of fluorochromes (0.5 μL of SYTO9 and/or 0.5 μL of propidium iodide (PI) with 99 μL of PBS). Subsequently, the cells were incubated at room temperature and in the dark for 20 min and centrifuged, and the supernatant was discarded. The pellet was resuspended in 100 μL of PBS and analyzed via flow cytometry in a BD Accuri C6 device. The events were recorded using the green channel (FL1) on the abscissa axis and the red (FL3) on the ordinate axis. Negative control: untreated cells marked with both fluorophores; positive control: cells treated with actinomycin 10 μg/mL for 24 h [52]. […]
Data set [3] relates to MCF-7 cells. Put plainly: Type of cell death (apoptosis/necrosis), Annexin V/PI flow cytometry. Type of data set: cell-based, human. The conditions noted are these: MCF-7, peptide 15 µM, 24 h, annexin V and PI. The method, then:
The cells were seeded and synchronized in boxes of 24 wells at a concentration of 4 × 10^4 cells/well in 400 μL/well, adhesion and synchronization were allowed in the same way as in Section 4.8, and the culture medium was replaced with medium containing the peptide to be evaluated and incubated for 2 or 24 h. Subsequently, the cells were harvested with trypsin, centrifuged at 2500 rpm for 10 min, washed with PBS, and resuspended in 10 μL of staining buffer with the fluorochromes (10 mM Hepes pH 7.4; 10 mM NaCl and 2.5 mM CaCl2 containing 1 μL of PI fluorochrome and 1 μL of Annexin V). Cells with the fluorochromes were incubated at 37 °C in the dark for 15 min and resuspended in 80 μL of staining buffer without fluorochromes for analysis via flow cytometry. The positive control of necrosis was: cells treated with EDTA 15 mM for 60 min, and apoptotic: cells treated with Actinomycin at 10 μM for 24 h. Negative control: cells without treatment; compensation controls: (i) cells stained only with Annexin, and (ii) only with PI; population control: unstained and untreated cells.

In data set [4] the test system is MCF-7 cells. The experiment in a line: Mitochondrial membrane depolarization, JC-1 flow cytometry. Type of data set: cell-based, human. The conditions noted are these: MCF-7, peptide 15 µM.
Protocol: For this test, the MitoProbeTM JC-1 Assay kit (M34152 from Termofisher, Walthan, MA, USA) was used according to the supplier’s recommendations. The cells seeded and synchronized in a box of 24 wells (4 × 10^4 cells/well) were incubated with 400 μL of peptide to be evaluated at 2 and 24 h. The cells were then trypsinized and collected by centrifugation at 400 g × 5 min. The resulting pellet was stained by adding 100 μL of JC1 “working solution” (1:100 JCI solution reconstituted in DMSO: buffer assay 1×) and incubated at 37 °C for 20 min. Subsequently, the cells were washed twice with 1× buffer assay and finally resuspended in 100 μL of 1× buffer assay for reading on the cytometer. Negative control: cells without treatment; positive control: cells treated with 10 μM actinomycin for 24 h.
Data set [5] has as its system MCF-7 cells. Put plainly: Cell morphology and size by inverted microscope. The format is cell-based, human. The settings on record: MCF-7, 90 min of treatment, 37 °C; from 100.27 μm before; average of 100 measurements; Figure 3: 100 µg/mL. The method, then:
Cell morphology was monitored before and after treatment with ^26[L] or ^26[F] at different times, using an inverted microscope coupled to an AxioCam ICc1 camera (Figure 3). The untreated cells had normal morphologic characteristics as polygonal, flattened, and elongated cells with long and defined axons (data not shown). After 5 min of treatment with the peptide, most cells retained their morphology; however, some began to appear rounded and shrunken. After 90 min, the cells treated with the peptide (^26[L] or ^26[F]) took on a rounded shape, and shrinkage was observed, going from an average size of 100.27 μm to 39.38 µm. […] At 24 h of treatment, the appearance of small vacuoles was observed, presumably associated with late apoptosis events. Finally, it was observed that the effect of the peptide was sustained up to 48 h since at that time no recovery of cell morphology was observed.
Figure 3 Micrography of MCF-7 cells treated with peptide ^26[F] at 100 µg/mL. The cells were incubated in the absence (A) or the presence of the peptide at (B) 5 min, (C) 90 min, (D) 240 min, (E) 24 h, and (F) 48 h at 37 °C. The cell size was determined as an average of 100 measurements, using an AxioCam ICc1 camera.

For data set [6], the system named is breast cancer cell lines HTB-132 and MCF-7. The format is cell-based, human. The settings on record: 24 h. As for the experimental part: as §2
Another data set is described as follows: Stability during storage. The format is physicochemical. The settings on record: Met residue prone to oxidation; Supplementary Figure S1.
The test system of data set [7] is HTB-132 cell line. Put plainly: MTT viability test, HTB-132 cells. The conditions noted are these: 24 h, concentration range 1–100 µg/mL. Type of data set: cell-based, human.
Data set [8] relates to MDA-MB 231 breast cancer cells. The settings on record: peptide 100 µg/mL (30 µM); earlier work, ref not given; cited from earlier work. The source says:
(§3) Breast cancer is the most common cancer type diagnosed worldwide. There are 2.1 million cases annually, and 627,000 deaths of women due to this disease were reported in 2018 [5]. […] However, when this motif was modified or included in longer sequences, the cytotoxic effect against human cancer cell lines increased. In ...

Data set [9] has as its system MDA-MB 468 breast cancer cells. The conditions noted are these: peptide 100 µg/mL (30 µM); earlier work, ref not given; cited from earlier work.
Excerpt: as §3

The mark [10] stands for this setting: MTT, 24 h at 37 °C, three independent experiments with n = 4 each.

Molecules are shown by their SMILES. Converted amounts (≈) assume the structure as drawn. Like-named read-outs stand apart in the source and are kept apart here. Bridge positions count the residues as written; N and C are the ends. Square brackets hold non-standard residues; d marks the D form. Peptide text beside a SMILES is read from it. I, II: the chains in the order shown. Ahx = NCCCCCC(=O)O

Regarding `CC(C)C[C@H](NC(=O)[C@H](CCCCN)NC(=O)[C@H](CCCCN)NC(=O)[C@H](Cc1ccccc1)NC(=O)[C@H](CCCNC(=N)N)NC(=O)[C@H](Cc1c[nH]c2ccccc12)NC(=O)[C@H](CCC(N)=O)NC(=O)[C@H](Cc1c[nH]c2ccccc12)NC(=O)[C@H](CCCNC(=N)N)NC(=O)[C@@H](N)CCCNC(=N)N)C(=O)NCC(=O)NCCCC[C@H](NC(=O)CNC(=O)[C@H](CC(C)C)NC(=O)[C@H](CCCCN)NC(=O)[C@H](CCCCN)NC(=O)[C@H](Cc1ccccc1)NC(=O)[C@H](CCCNC(=N)N)NC(=O)[C@H](Cc1c[nH]c2ccccc12)NC(=O)[C@H](CCC(N)=O)NC(=O)[C@H](Cc1c[nH]c2ccccc12)NC(=O)[C@H](CCCNC(=N)N)NC(=O)[C@@H](N)CCCNC(=N)N)C(=O)NCCCCCC(N)=O` [^26[F], (RRWQWRFKKLG)2-K-Ahx] (I: H-RRWQWRFKKLGK[Ahx]-NH2 / II: H-RRWQWRFKKLG; amide I:12-II:C), the “cytotoxic effect against HTB-132 compared with ^26[M] (in words)” value in the data set on HTB-132 cell line [1] (MTT, 24 h) is reported as “greater cytotoxic effect against cancer cells than the original peptide”. Besides, in the data set with HTB-132 cell line [1] (MTT), the “IC50, cytotoxic effect, HTB-132” value is on record as 43 µg/mL (≈ 12.9 µM). Besides, the IC50 in the data set with HTB-132 cell line [1] (human, 24 h, pH 7.4) is 13 µM; in the data set with MCF-7 cell line (human, 24 h, pH 7.4), 6 µM; with MCF-12 cell line (24 h), 21 µM; in [6], 6 to 13 µM. Further, the “cytotoxic effect against MCF-7 compared with ^26[M] (in words)” value with MCF-7 cell line (MTT, 24 h) was “greater cytotoxic effect against MCF-7 cells than the peptide”. Further, the “IC50, cytotoxic effect, MCF-7” value in the data set on MCF-7 cell line (setting [10]) is recorded as 19 µg/mL (≈ 5.68 µM). Further, the “maximum cytotoxic effect, MCF-7” value in the data set with MCF-7 cell line (MTT, peptide 200 µg/mL, regardless of treatment time (2, 24, 48 h)) was “approximately 90%”. For the same molecule, the “cytotoxic effect against MCF-12 compared with HTB-132 and MCF-7 (in words)” value with MCF-12 cell line was “lower cytotoxic effect against MCF-12 cells than against breast cancer cell lines”. Also, the “IC50, non-tumorigenic cell line MCF-12” value in the data set with MCF-12 cell line (MTT, 24 h at 37 °C) is given as 70 µg/mL (≈ 20.9 µM). The “cell population with cytoplasmic membrane affected” value in the data set on MCF-7 cells [2] is 10%. In the data set on MCF-7 cells [3], the “cell population dyed with both fluorophores (apoptotic process)” value was 54%. The “cell population dyed with only PI (necrotic process)” value in the data set with MCF-7 cells [3] was 21%. Also, in the data set on MCF-7 cells [4], the “population with depolarization of the mitochondrial membrane” value came to 19%. Besides, in the data set with MCF-7 cells [5], the “average cell size after treatment” value stood at 39.38 µm.
For `CSCC[C@H](NC(=O)[C@H](CCCNC(=N)N)NC(=O)[C@H](Cc1c[nH]c2ccccc12)NC(=O)[C@H](CCC(N)=O)NC(=O)[C@H](Cc1c[nH]c2ccccc12)NC(=O)[C@H](CCCNC(=N)N)NC(=O)[C@@H](N)CCCNC(=N)N)C(=O)N[C@@H](CCCCN)C(=O)N[C@@H](CCCCN)C(=O)N[C@@H](CC(C)C)C(=O)NCC(=O)NCCCC[C@H](NC(=O)CNC(=O)[C@H](CC(C)C)NC(=O)[C@H](CCCCN)NC(=O)[C@H](CCCCN)NC(=O)[C@H](CCSC)NC(=O)[C@H](CCCNC(=N)N)NC(=O)[C@H](Cc1c[nH]c2ccccc12)NC(=O)[C@H](CCC(N)=O)NC(=O)[C@H](Cc1c[nH]c2ccccc12)NC(=O)[C@H](CCCNC(=N)N)NC(=O)[C@@H](N)CCCNC(=N)N)C(=O)NCCCCCC(N)=O` [^26[M], (RRWQWRMKKLG)2-K-Ahx] (I: H-RRWQWRMKKLGK[Ahx]-NH2 / II: H-RRWQWRMKKLG; amide I:12-II:C), the “IC50, cytotoxic effect, HTB-132” value in the data set with HTB-132 cell line [1] (MTT) worked out at 96 µg/mL (≈ 29 µM). The “cytotoxic effect against MCF-7 (in words)” value in the data set with MCF-7 cell line (MTT, 24 h) is listed as “does not exhibit a significant cytotoxic effect”. Further, the “IC50, cytotoxic effect, MCF-7” value with MCF-7 cell line (setting [10]) is greater than 200 µg/mL. In addition, in the data set with MCF-7 cell line (MTT, 24 h at 37 °C, three independent experiments with n = 4 each, read-out: IC50, cytotoxic effect, MCF-7), the IC50 is greater than 60 µM. For the same molecule, in “Stability during storage”, the “stability during storage (in words)” value is given as “stability problems”. In the data set with HTB-132 cell line [7], the “cytotoxic effect at the maximum evaluated concentration, HTB-132” value is reported as roughly 55%. For the same molecule, in data set [8], the “cellular viability, MDA-MB 231” value is ~ 0% and the “cytotoxic effect, MDA-MB 231” value is listed as roughly 100%. Moreover, in [9], the “cellular viability, MDA-MB 468” value is listed as ~ 0% and the “cytotoxic effect, MDA-MB 468” value is roughly 100%.

The record behind these values is article PMC7352952, “Peptides Derived from (RRWQWRMKKLG)2-K-Ahx Induce Selective Cellular Death in Breast Cancer Cell Lines through Apoptotic Pathway” (International Journal of Molecular Sciences, 2020).
